Results published in patent publication US10982284B2, “Compositions and methods APC, CREB, and BAD pathways to assess and affect cancer” (H. Lee Moffitt Cancer Center and Research Institute, Inc., priority 2011, dated 2021).

Tests used:
Assay in all cases: CellTiter-Blue cell viability assay
Type in all cases: cell-based, human
[1] = tested on: A2008; settings: A2008 ovarian cancer cell line, 72 hours, 50% reduction in growth/viability
Source text: (§1) Ovarian cancer cell lines were obtained from the American Type Culture Collection (Manassas, Va.) (CAOV3, OV90, OVCAR3, SKOV3, TO[…]); from the European Collection of Cell Cultures, Salisbury, UK (A2780CP, A2780S); or from Kyoto University, Kyoto, Japan ([…], Tyknu, and TyknuC is R) or were kind gifts from Dr. Patricia Kruk, Department of Pathology, College of Medicine, University of South Florida, Tampa, Fla., and Susan Murphy, PhD, Dept of OBGYN/Division of GYN Oncology, Duke University, Durham, N.C. […] Cell lines were maintained in RPMI-1640 (Invitrogen, Carlsbad, Calif.) supplemented with 10% fetal bovine serum (Fisher Scientific, Pittsburgh, Pa.), 1% sodium pyruvate, 1% penicillin/streptomycin (Cellgro, Manassas, Va.), and 1% nonessential amino acids (HyClone, Hudson, N.H.). Mycoplasma testing was performed every 6 months following manufacturer's protocol (Lonza, Rockland, Me.). Drug activity was evaluated using a high-throughput CellTiter-Blue cell viability assay. […] After cell adherence, increasing concentrations of cisplatin, carboplatin (Sigma-Aldrich, St. Louis, Mo.), paclitaxel (Sequoia Research Products Ltd., Pangbourne, UK), or carboplatin plus paclitaxel (carbotaxol: constant molar ratio of carboplatin to paclitaxel of 20,000:1) were added to appropriate wells using an automated pipetting station. Four replicate wells were used for each drug concentration and vehicle controls. […] The cells were incubated with the drug for 72 hours, and 5 μL of CellTiter-Blue reagent (Promega Corp) was added to each well. Fluorescence was read at […] using a Synergy 4 microplate reader (Bio-Tek Instruments, Inc., Winooski, Vt.).

[2] = tested on: A2780CP; settings: A2780CP ovarian cancer cell line, 72 hours, 50% reduction in growth/viability
Source text: as §1

[3] = tested on: A2780S; settings: A2780S ovarian cancer cell line, 72 hours, 50% reduction in growth/viability
Source text: as §1

[4] = tested on: BG1; settings: BG1 ovarian cancer cell line, 72 hours, 50% reduction in growth/viability
Source text: as §1

[5] = tested on: C13; settings: C13 ovarian cancer cell line, 72 hours, 50% reduction in growth/viability
Source text: as §1

[6] = tested on: CHIcisR; settings: CHIcisR ovarian cancer cell line, 72 hours, 50% reduction in growth/viability
Source text: as §1

[7] = tested on: Dov13; settings: Dov13 ovarian cancer cell line, 72 hours, 50% reduction in growth/viability
Source text: as §1

[8] = tested on: HeyA8; settings: HeyA8 ovarian cancer cell line, 72 hours, 50% reduction in growth/viability
Source text: as §1

[9] = tested on: IMCC3; settings: IMCC3 ovarian cancer cell line; 72 hours; 50% reduction in growth/viability
Source text: as §1

[10] = tested on: IMCC5; settings: IMCC5 ovarian cancer cell line, 72 hours, 50% reduction in growth/viability
Source text: as §1

[11] = tested on: M41CSR; settings: M41CSR ovarian cancer cell line, 72 hours, 50% reduction in growth/viability
Source text: as §1

[12] = tested on: OV2008; settings: OV2008 ovarian cancer cell line, 72 hours, 50% reduction in growth/viability
Source text: as §1

[13] = tested on: OVCA420; settings: OVCA420 ovarian cancer cell line; 72 hours; 50% reduction in growth/viability
Source text: as §1

[14] = tested on: OVCA432; settings: OVCA432 ovarian cancer cell line, 72 hours, 50% reduction in growth/viability
Source text: as §1

[15] = tested on: OVCAR2; settings: OVCAR2 ovarian cancer cell line, 72 hours, 50% reduction in growth/viability
Source text: as §1

[16] = tested on: OVCAR4; settings: OVCAR4 ovarian cancer cell line, 72 hours, 50% reduction in growth/viability
Source text: as §1

[17] = tested on: OVCAR5; settings: OVCAR5 ovarian cancer cell line, 72 hours, 50% reduction in growth/viability
Source text: as §1

[18] = tested on: OVCAR8; settings: OVCAR8 ovarian cancer cell line, 72 hours, 50% reduction in growth/viability
Source text: as §1

[19] = tested on: Ovary1847; settings: Ovary1847 ovarian cancer cell line, 72 hours, 50% reduction in growth/viability
Source text: as §1

[20] = tested on: SKOV3; settings: SKOV3 ovarian cancer cell line, 72 hours, 50% reduction in growth/viability
Source text: as §1

[21] = tested on: Tyknu; settings: Tyknu ovarian cancer cell line, 72 hours, 50% reduction in growth/viability
Source text: as §1

For `N.N.O=C([O-])C1(C(=O)[O-])CCC1.[Pt+2]` [Carboplatin, carboplatin], the IC50 [1] was 20.2 µM, the IC50 [2] was 94.2 µM and the IC50 [3] was 24.3 µM. For the same compound, the IC50 [4] was 144 µM, the IC50 [5] was 56.8 µM and the IC50 [6] was 20 µM. It also gave an IC50 [7] of 104 µM, an IC50 [8] of 291 µM and an IC50 [9] of 69.5 µM. The IC50 [10] was 41.3 µM, the IC50 [11] was 48.2 µM and the IC50 [12] was 45.1 µM. For the same compound, the IC50 [13] was 166 µM, the IC50 [14] was 63.1 µM and the IC50 [15] was 45.5 µM. For the same compound, the IC50 [16] was 72 µM, the IC50 [17] was 125 µM and the IC50 [18] was 56.1 µM. The IC50 [19] was 172 µM, the IC50 [20] was 247 µM and the IC50 [21] was 9.6 µM.
`CC(=O)O[C@H]1C(=O)[C@@]2(C)[C@H]([C@H](OC(=O)c3ccccc3)[C@]3(O)C[C@H](OC(=O)[C@H](O)[C@@H](NC(=O)c4ccccc4)c4ccccc4)C(C)=C1C3(C)C)[C@]1(OC(C)=O)CO[C@@H]1C[C@@H]2O` [Paclitaxel, paclitaxel] was tested, and the IC50 ([1]; Homo sapiens) was 0.0058 µM, the IC50 ([2]; Homo sapiens, A2780C/P) was 0.004 µM and the IC50 ([3]; Homo sapiens) was 0.0024 µM. It also gave an IC50 ([4]; Homo sapiens, BG-1) of 0.0055 µM, an IC50 ([5]; Homo sapiens) of 0.0032 µM and an IC50 ([6]; Homo sapiens) of 0.0018 µM. The IC50 ([7]; Homo sapiens) was 0.0173 µM, the IC50 ([8]; Homo sapiens, HEY A8) was 0.0174 µM and the IC50 ([10]; Homo sapiens) was 0.0031 µM. The IC50 ([11]; Homo sapiens) was 0.0025 µM, the IC50 ([12]; Homo sapiens) was 0.0139 µM and the IC50 ([14]; Homo sapiens) was 0.0063 µM. For the same compound, the IC50 ([15]; Homo sapiens) was 0.0028 µM, the IC50 ([16]; Homo sapiens, OVCAR-4) was 0.0178 µM and the IC50 ([17]; Homo sapiens, OVCAR-5) was 0.0056 µM. For the same compound, the IC50 ([18]; Homo sapiens, OVCAR-8) was 0.0057 µM, the IC50 ([19]; Homo sapiens) was 0.0056 µM and the IC50 ([20]; Homo sapiens, SK-OV-3) was 0.0887 µM. It also gave an IC50 ([21]; Homo sapiens) of 0.0083 µM.
